In brackets after ≈: the same amount, converted by molar mass.
Conditions: buffer; pH 7.4; 200.0 µM

SMILES	solubility kinetic [µg/mL]
CC(C)(C)C(=O)Nc1ccc(/C=C/C(=O)c2ccco2)cc1	28.9 (≈ 97.2 µM)
CCc1ccccc1NC(=O)CCC(=O)c1cccs1	32.1 (≈ 112 µM)
COc1ccc(C(=O)NCCCOc2cccc(NC(C)=O)c2)cc1	> 51.4
Cc1cccc(C)c1Nc1ncnc2ccccc12.Cl	> 42.9
CCCc1ccc(C(=O)NC(=O)c2ccccc2O)cc1	3.2 (≈ 11.3 µM)
CCCCn1c(C)c(C(=O)O)c2cc(OC)c3ccccc3c21	2.9 (≈ 9.31 µM)
COc1ccc(CCNC(=O)COC(=O)c2cc3ccccc3oc2=O)cc1OC	> 61.7
O=C1N(c2ccccc2)C[C@@H]2C[C@@H](c3cccs3)N3CCC[C@@]123	41.8 (≈ 129 µM)
Cc1ccc(Nc2c([N+](=O)[O-])c(=O)oc3ccccc23)cc1	5.8 (≈ 19.6 µM)
CC(=O)N(Cc1ccccc1)c1nc(-c2ccccc2)cs1	< 0.3
COc1ccccc1NC(=O)N1CCN(CCc2ccccc2)CC1	50.7 (≈ 149 µM)
CCOC(=O)CNC(=O)C12CC3CC(CC(C3)C1)C2	37.8 (≈ 142 µM)
Cc1ccc(NC(=O)COC(=O)c2ccc(NC(=O)CC#N)cc2)cc1S(=O)(=O)N1CCOCC1	23.6 (≈ 47.1 µM)
C=CCSc1ncccc1C(=O)NCCc1ccccc1	29.3 (≈ 98.2 µM)
Cc1nc(NC(=O)/C=C/c2ccccc2)sc1C(=O)NCCO	12.9 (≈ 38.9 µM)
CCOc1ccccc1NS(=O)(=O)c1ccc2[nH]c(=O)[nH]c2c1	> 50
COc1ccc(N2CCN(c3ccc(NC(=O)/C=C\C(=O)O)cc3)CC2)cc1	> 57.2
COc1ccc(CSCC(=O)NCCC(C)C)cc1	> 42.2
CCCNC(=O)Nc1cc(S(=O)(=O)CC)ccc1O	37.9 (≈ 132 µM)
COc1ccccc1OCCCCn1c(C(C)O)nc2ccccc21 (stereo not drawn)	49.9 (≈ 147 µM)
O=C(CN1C(=O)c2ccccc2S1(=O)=O)NCc1ccccc1	> 49.6

SMILES	solubility kinetic [µg/mL]
COc1cccc(C(=O)NCc2ccco2)c1	> 34.7
COc1cc([N+](=O)[O-])ccc1NC(=O)/C=C\C(=O)O	> 39.9
CC(=O)N1CC(C(=O)Nc2ccc3c(c2)OCO3)Oc2ccccc21 (stereo not drawn)	> 51.1
Cc1ccc(NCCC(=O)c2cccs2)cc1	17.9 (≈ 73 µM)
CN(C)c1cc[n+](CC(=O)Nc2cccc([N+](=O)[O-])c2)cc1.[Cl-]	> 50.5
CSc1nc(SC(C)C(=O)O)c2c3c(sc2n1)COC(C)(C)C3 (stereo not drawn)	> 55.6
CCc1c(C)c(C#N)c2nc3ccccc3n2c1NC	1.3 (≈ 4.92 µM)
CC1CC(C)CN(C(=O)COC(=O)c2ccc([N+](=O)[O-])o2)C1 (stereo not drawn)	> 46.5
CN(C(=O)COc1ncnc2sccc12)c1ccccc1	39.4 (≈ 132 µM)
COc1ccc(C(=O)/C=C/Nc2ccc(S(N)(=O)=O)cc2)cc1OC	7.9 (≈ 21.8 µM)
COc1ccc(CCC(=O)NCc2ccccc2OC)cc1	> 44.9
CCOC(=O)c1c(C)[nH]c(C(=O)COC(=O)C2CC2)c1C	7.8 (≈ 26.6 µM)
COc1ccc(NC(=O)CN(C)C(=O)c2ccc(=O)[nH]c2)cc1	> 47.3
C[N+](C)(C)CCOP(=O)([O-])OP(=O)([O-])OC[C@H]1O[C@@H](n2ccc(N)nc2=O)[C@H](O)[C@@H]1O.[Na+]	3.7
CNC(=O)c1c(NC(=O)C2=COCCO2)sc(C)c1C	> 44.5
CCCCC(=O)Nc1ccc(C(=O)NCCN2CCOCC2)cc1	> 50
CC(C)Cn1c(N)c(C(=O)COC(=O)c2cc3ccccc3cc2O)c(=O)n(C)c1=O	4.5 (≈ 10.6 µM)
CC(=O)N1CC(=O)N(c2ccccc2)C1=O	> 32.7
Cc1cc(C)c2c(n1)sc1c(N3CCN(C)CC3)ncnc12	39.6 (≈ 126 µM)
CCN1CCN(C(=O)C(C)Sc2nc3nc(C)cc(C)n3n2)CC1 (stereo not drawn)	> 52.3
Cc1cccc(C)c1NC(=O)CNC(=O)c1ccccc1	24.9 (≈ 88.2 µM)

SMILES	solubility kinetic [µg/mL]
CC(NC(=O)COC(=O)c1cccs1)c1ccccc1 (stereo not drawn)	11.9 (≈ 41.1 µM)
CC(=O)Nc1ccc(S(=O)(=O)NCCC(=O)OCC(=O)NCc2ccccc2)cc1	> 65
Cc1nn(CCCC(=O)Nc2cccnc2)c(C)c1[N+](=O)[O-]	> 45.5
O=C(CN1C(=O)c2ccccc2C1=O)c1ccc(F)cc1	39.5 (≈ 139 µM)
CCOC(=O)c1c(O)cc(C)cc1Nc1ccccc1	< 0.6
CCCOc1ccc(/C=C2\SC(N)=NC2=O)cc1OC	2.5 (≈ 8.55 µM)
CCCCn1c(=O)c(C(=O)NC(C)c2ccccc2)c(O)c2ccccc21 (stereo not drawn)	< 0.4
Cn1c(=O)c([N+](=O)[O-])c(NCCCn2ccnc2)c2ccccc21	> 49.1
O=C(Cc1ccc(Br)cc1)OCC(=O)c1ccc[nH]1	10.3 (≈ 32 µM)
CCC1(C)Cc2c(sc3nc(SC)[nH]c(=O)c23)CO1 (stereo not drawn)	7.9 (≈ 26.7 µM)
Nc1nc(C(F)(F)F)cc(=O)[nH]1	22.8 (≈ 127 µM)
COC(=O)[C@@H](N)CCCN=C(N)N[N+](=O)[O-].Cl	> 40.5
Brc1cccc(-c2cnco2)c1	4 (≈ 17.9 µM)
CS(=O)(=O)Nc1ccc(S(=O)(=O)N2CCCC2)cc1	> 45.7
COc1ccc(C2(C)NC(=O)N(CC(=O)NCC(=O)Nc3ccc(F)c(F)c3F)C2=O)cc1OC (stereo not drawn)	0.5 (≈ 1.01 µM)
COc1ccc(NC(=O)/C=C/c2cc(OC)c(OC)c(OC)c2)cn1	0.5 (≈ 1.45 µM)
c1ccc(CNc2c3ccccc3nc3ccccc23)cc1	40.5 (≈ 142 µM)
CCOc1ccc(N/C=C/C(=O)c2ccc(OC)c(OC)c2)cc1	2.2 (≈ 6.72 µM)
O=C(COC(=O)C12CC3CC(CC(Cl)(C3)C1)C2)N1CCCCC1	27.5 (≈ 80.9 µM)
COC(=O)c1c(C(=O)OC)c2ccccn2c1C(=O)c1ccccc1	6.2 (≈ 18.4 µM)
Oc1ccccc1CNc1nccs1	> 30.9

Other lines, results leading:

solubility kinetic [µg/mL]	SMILES
3.2 (≈ 11.9 µM)	O=C(CC1NC(=S)NC1=O)c1ccc(Cl)cc1 (stereo not drawn)
5.8 (≈ 18.4 µM)	CCN1C(=O)c2ccc(C(=O)Nc3ncc(C)s3)cc2C1=O
> 42.4	Cc1ccc(-c2[nH]c3ccccc3c2SCCN)cc1
> 37.5	CN(C(=S)NC(=O)C1CC1)c1ccc(O)cc1
> 51.2	CCOC(=O)N1CCN(CCC(=O)Nc2ccc(F)c(F)c2)CC1
> 49.6	CC1=C(C(=O)OC2CCCCC2)C(c2ccc(O)cc2)NC(=O)N1 (stereo not drawn)
1 (≈ 3.08 µM)	COc1cc2cc(C(=O)NCCc3ccccc3)[nH]c2cc1OC
> 67.9	CN1CCC(N(C)C(=O)c2cc(S(=O)(=O)N3CCOCC3)ccc2Cl)CC1.Cl
31.7 (≈ 111 µM)	O=C(/C=C/c1ccc(-c2ccc(F)cc2)o1)N1CCCC1
> 47.2	Cc1cc(C)n2nc(SCc3ccccc3C(=O)O)nc2n1
> 42.6	Cc1nc(-c2cccc(NC(=O)c3ccco3)c2)cs1
3.9 (≈ 12.8 µM)	COc1ccc(Cl)cc1NC(=O)C(OC)c1ccccc1 (stereo not drawn)
> 41.5	O=C(c1cc(-c2ccccc2Cl)on1)N1CCCC1
> 30.6	O=C(NCc1ccccc1)N1CCCC1
22.2 (≈ 80.6 µM)	CC(=O)c1c(C)nc2ccc(C)cc2c1-c1ccccc1
0.3 (≈ 1.08 µM)	O=c1cc(O)c2sc(Nc3ccc(F)cc3)nc2[nH]1
> 41.7	CCOc1ccc(NC(=O)CSc2ncn[nH]2)cc1
10.7 (≈ 33 µM)	COC(=O)c1ccccc1NC(=O)CN1CCc2ccccc2C1
> 48.5	Cc1cc(NC(=O)c2ccc(Cl)cc2Cl)n(CCC#N)n1
5.7 (≈ 18.6 µM)	O=C(Nc1cccc(Cl)c1N1CCOCC1)c1ccco1
8.3 (≈ 24.5 µM)	COC(=O)c1ccc(CSc2nc(C(F)F)cc(C)c2C#N)o1
16.9 (≈ 51 µM)	CCOc1ccc(NC(=O)COC(=O)CC2CC3CCC2C3)cc1 (stereo not drawn)
31.7 (≈ 136 µM)	C=CCSc1nc(=O)n2ccc(C)cc2n1
46.6 (≈ 140 µM)	O=C(Nc1ccc(Cl)cc1C(=O)N1CCCCC1)c1ccco1
> 46.4	O=C(O)c1ccc(NC(=O)C2(c3ccccc3)CCCC2)cc1
> 46.9	Cc1cccc(C(=O)OC(C)CN2CCN(C)CC2)c1.Cl (stereo not drawn)
> 45.5	O=C(NCCO)C(=O)Nc1cc2c3c(c1)CC(=O)N3CCC2
> 49.6	O=C(NCc1ccc2c(c1)OCO2)C1CCC(=O)N1C1CCCC1 (stereo not drawn)

solubility kinetic [µg/mL]	SMILES
> 46.3	Cc1cccc(C)c1NC(=O)c1ccc(N2CCCC2=O)cc1
1.4 (≈ 5.06 µM)	O=C(c1cc(-c2ccc(Cl)cc2)on1)N1CCCC1
2.8 (≈ 9.85 µM)	Cc1ccc(C(=O)Nc2ccccc2N2CCCCC2)o1
> 43.7	Cc1c(C(=O)N2C[C@@H](C)O[C@@H](C)C2)oc2c(F)cccc12
> 47.7	CCOC(=O)C1=C(C)N(C)C(=O)NC1c1ccc2c(c1)OCO2 (stereo not drawn)
29.8 (≈ 120 µM)	O=C(Nc1ccc2ccccc2n1)c1ccccc1
37.7 (≈ 102 µM)	CCOc1ccc(S(=O)(=O)NCCC(=O)NC2CCC(C)CC2)cc1 (stereo not drawn)
> 41.9	Cc1ncc(CSc2nccc(=O)[nH]2)c(CO)c1O
> 43.4	Cc1ccc(NC(=O)NCCCN2CCCC2=O)cc1C
26.9 (≈ 92.9 µM)	Cc1cccc(OCCCC(=O)N2CCCCCC2)c1C
30.8 (≈ 93.4 µM)	O=C(O)CN1C(=O)/C(=C/c2cccc(Cl)c2)Oc2ccccc21
5.1 (≈ 19.4 µM)	O=C(NCC1CCCCC1)c1ccc([N+](=O)[O-])cc1
33.8 (≈ 94.1 µM)	Cc1cc(NC(=O)CSc2nccn2-c2ccc([N+](=O)[O-])cc2)no1
55.4 (≈ 137 µM)	CCc1noc(C)c1C(=O)N1CCN(S(=O)(=O)c2ccc(Cl)s2)CC1
2.9 (≈ 6.57 µM)	Cc1cccc(N2CCN(C(=O)c3cccc(S(=O)(=O)N4CCCCC4)c3)CC2)c1C
47.4 (≈ 147 µM)	CC1CCc2c(sc(NC(=O)c3cccs3)c2C(=O)O)C1 (stereo not drawn)
9.3 (≈ 30 µM)	O=C(CSc1nc2ccc(Cl)cc2[nH]1)NC1CCCC1
> 41.6	COc1ccccc1C(=O)NC(=O)COC(=O)C1CC1
29.2 (≈ 74.5 µM)	Cc1cc(C(=O)COC(=O)CC(NC(N)=O)c2ccc(Cl)cc2)c(C)n1C (stereo not drawn)
> 37.6	CNC(=O)COc1ccc(Cl)c2cccnc12
> 52.4	COc1c(Cl)ccc(Cl)c1C(=O)NC(=S)N1CCOCC1
> 41.3	CSc1cccc(NC(=O)CC(C)n2ccnc2)c1 (stereo not drawn)
> 44.5	O=C(NC(c1ccccc1)c1ccccc1)N1CCOCC1
46.8 (≈ 142 µM)	CCOC(=O)C1(Cc2ccccc2)CCCN(C(=O)C=C(C)C)C1 (stereo not drawn)
22.9 (≈ 93 µM)	CCOc1ccc(C2=CSC3=NCCN23)cc1
30.6 (≈ 149 µM)	Nc1ncnc(Nc2cccc(F)c2)n1
28.2 (≈ 89.4 µM)	O=C(OCC(=O)N1CCOCC1)c1ccc2ccccc2c1O

From PubChem BioAssay AID1996
